Article PMC3062964, “Biomolecular Interaction Study of Cyclolinopeptide A with Human Serum Albumin” (Journal of Biomedicine and Biotechnology, 2011)
Peptide text beside a SMILES is read from it.

Legend:
HSA = target: T1, HSA (Homo sapiens, UniProt P02768); experiment: Far-UV circular dichroism, secondary structure of HSA upon CLP-A binding; settings: HSA 18 μM + CLP-A 50 μM, 10 mM PBS, 5% DMSO, pH 7.4, room temperature, far-UV CD, CDNN V2.1, 210–260 nm
T1 construct: purchased Sigma (Oakville, ON)
T1 sequence (P02768 25-609): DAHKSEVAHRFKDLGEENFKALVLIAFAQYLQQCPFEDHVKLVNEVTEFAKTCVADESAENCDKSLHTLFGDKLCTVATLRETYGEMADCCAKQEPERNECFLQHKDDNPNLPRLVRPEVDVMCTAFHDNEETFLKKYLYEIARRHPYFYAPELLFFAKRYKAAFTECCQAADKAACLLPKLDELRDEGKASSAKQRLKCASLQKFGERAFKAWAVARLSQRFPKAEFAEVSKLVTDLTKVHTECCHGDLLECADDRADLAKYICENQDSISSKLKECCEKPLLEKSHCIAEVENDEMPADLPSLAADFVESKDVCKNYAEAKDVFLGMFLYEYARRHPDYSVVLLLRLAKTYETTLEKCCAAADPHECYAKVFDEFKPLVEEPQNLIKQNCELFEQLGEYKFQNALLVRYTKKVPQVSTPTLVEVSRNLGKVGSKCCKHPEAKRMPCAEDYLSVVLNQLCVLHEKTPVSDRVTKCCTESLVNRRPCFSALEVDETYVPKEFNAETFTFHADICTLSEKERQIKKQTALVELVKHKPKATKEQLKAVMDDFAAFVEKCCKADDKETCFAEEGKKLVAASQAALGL
Description: CD measurements of HSA (18 μM), HSA/CLP-A (18 μM, 50 μM) in 10 mM PBS, 5% DMSO, pH = 7.4 buffer were made with a Pistar-180 CD spectrometer (Applied Photophysics Ltd., Leatherhead, UK) at room temperature. The far-UV region was scanned from 260–180 nm in 0.5 nm steps at a scan rate of 10 nm min^−1 and a bandwidth of 6 nm using a 0.010 cm optical pathlength quartz cuvette. The secondary structure was estimated using the neural network deconvolution software CDNN V2.1 [22]. The near-UV region was scanned from 350–250 nm in 0.5 nm steps at a scan rate of 10 nm min^−1, and a bandwidth of 2 nm using a 10 mm optical pathlength cuvette.
In order to assess if any conformational changes were present upon CLP-A complexation with HSA, we compared the far-UV and near-UV CD spectra of HSA and HSA/CLP-A in the running buffer used in the Biacore experiments shown in Figure 5. CD spectra taken in the far-UV spectral region provide insight to the secondary structure of a protein. […] This region of the spectra corresponds to signals from the phenylalanine, tyrosine, and tryptophan residues on the protein and it provides insight to changes in the tertiary structure of the protein.

[1] = target: T2, Human Serum Albumin (HSA, fatty acid free) (Homo sapiens, UniProt P02768); experiment: SPR binding of CLP-A to immobilized HSA; settings: for Kd: Kd = 1/Ka, SPR; for Kd / Ka: 1X PBS pH 7.4, 5% DMSO; for Ka: SPR (BiacoreX, CM5 chip, HSA 9–11 kRU), CLP-A 50–200 μM injected in triplicate, dose-response fitted with rectangular hyperbola, global Rmax 2000, standard error of curve-fitting in brackets
T2 construct: purchased Sigma (Oakville, ON)
T2 sequence (P02768 25-609): as above
Description: Running buffer for all experiments was prepared by diluting a 10X phosphate-buffered saline (PBS) stock solution (100 mM phosphate buffer, 20.7 mM KCl, 1370 mM NaCl, pH 6.7) to a 1X PBS, pH 7.4 solution containing 5% DMSO. Running buffers were filtered and degassed daily before use.
Analyte solutions containing the CLP-A peptides were prepared by diluting the stock solution (10 mM in DMSO) into 1.05X PBS, giving a final 1X PBS, pH 7.4 buffer containing 5% DMSO (same as the running buffer).
All SPR measurements were performed at different temperatures using a BiacoreX instrument equipped with a research-grade CM5 carboxylated-dextran sensor chip (Biacore). The fluidic unit of the instrument was cleaned prior to experiments using the DESORB method (injections of 0.5% sodium dodecyl sulphate, followed by 50 mM glycine, pH 9.5) equipped in the instrument's software. On some occasions a “SUPER-CLEAN” method was also used (injections of 1% CH3COOH, 1 M NaHCO3, 10 mM HCl, and 6 M GndHCl).
The carboxylated-dextran sensor chips were preconditioned prior to HSA immobilization by priming the instrument 3 times with HBS-EP buffer, followed by 3 successive 1 min injections of 50 mM NaOH at 50 μL min^−1. HSA was covalently immobilized onto a CM5 sensor surface at 25°C using standard amine-coupling chemistry. Flow cell 1 (Fc1) and flow cell 2 (Fc2) were activated by a 7 min injection of a 1 : 1 mixture of 0.1 M NHS and 0.4 M EDC using a flow rate of 5 μL min^−1. Immediately after activation, HSA (30 μg mL^−1, 10 mM acetate buffer pH 5.3) was immobilized onto Fc2. A 7 min injection of 1 M EA (pH 8.5) was conducted over Fc1 and Fc2 to deactivate the surfaces. The final HSA concentration immobilized onto the chip was 9–11 kRU.
CLP-A solutions (50–200 μM) were injected in triplicate and flowed over reference and HSA surfaces for 2 min at a flow rate of […], followed by a dissociation phase of 3 min for all experimental temperatures. At the end of the CLP-A injection, the flowing solution was switched to the running buffer until the response returned to the original baseline. Instances where the baseline was not readily achieved, a short pulse of 50% (v/v) DMSO solution was injected at high flow rate to remove any remaining CLP-A. Data were collected at a rate of 5 Hz and processed using the BiaEvaluation V4.2 software. The equilibrium constant, Ka, was determined using the rectangular hyperbola equation [20]:
(1) Req=Rmax Ka[CLP-A]/1+Ka[CLP-A], where Req, Rmax, [CLP-A] are the measured response values, the binding site saturation value, and the concentration of CLP-A, respectively. Curve-fitting was done with Microcal Origin V7.1 using a global Rmax value of 2000.
CLP-A concentration was limited to below 200 μM due to the solubility of the peptide in the buffer. The affinity of interaction was estimated by first assuming that HSA-binding sites were equally available and second that only high affinity sites were occupied in the working concentration range [24]. The Kd and Ka values indicate that affinity increases as the temperature increased. […] To further elucidate the HSA/CLP-A interaction, thermodynamic parameters are extracted using the van't Hoff equation (2) ln Kd=ΔH/R(1/T)−ΔS/R, where R = 8.314 J mol^−1 K^−1. This yields ΔH and ΔS for the interaction to be 204 kJ mol^−1 and 746 J mol^−1 K^−1 respectively. The binding is overall endothermic. This indicates an association with the hydrophobic pockets of HSA and the opening of binding sites. Moreover, DMSO has been used to assist the solubility. Therefore, the entire solvation complex consisting of CLP-A, DMSO and H2O requires energy to expose the binding site. This energy plus the binding energy for interaction in the hydrophobic pockets of HSA result in an overall endothermic process. The large entropy of the endothermic process clearly indicate that binding is entropy-driven. This is due to contribution from breaking of the solvation complex and hydrophobic binding.

Secondary structure of HSA/CLP-A: Parallel (HSA; HSA alone 6): 6% | Secondary structure of HSA/CLP-A: Antiparallel (HSA; HSA alone 8): 9% | Secondary structure of HSA/CLP-A: Beta-Turn (HSA; HSA alone 15): 16% | Secondary structure of HSA/CLP-A: Rndm. Coil (HSA; HSA alone 27): 29% | Secondary structure of HSA/CLP-A: Helix (HSA; HSA alone 46): 41% | Kd ([1]; 20°C): 1320 µM | Ka ([1]; 20°C): 757 (33) M^−1 | Kd ([1]; 25°C): 593 µM | Ka ([1]; 25°C): 1687 (20) M^−1 | Kd ([1]; 30°C): 142 µM | Ka ([1]; 30°C): 7056 (36) M^−1 | Kd ([1]; 37°C): 20 µM | Ka ([1]; 37°C): 50032 (1792) M^−1 | recognition kinetics of binding to the HSA-binding site ([1]; SPR sensorgrams, 50–200 μM, 20–37°C, gradual increase of response to steady state during injection): very slow recognition kinetics
Structure (SMILES): CC[C@H](C)[C@@H]1NC(=O)[C@H](CC(C)C)NC(=O)[C@H](Cc2ccccc2)NC(=O)[C@H](Cc2ccccc2)NC(=O)[C@@H]2CCCN2C(=O)[C@@H]2CCCN2C(=O)[C@H](C(C)C)NC(=O)[C@H](CC(C)C)NC(=O)[C@H]([C@@H](C)CC)NC1=O [CLP-A, Cyclolinopeptide A] (cyclo(FFLIILVPP))
